From patent US20160051529A1, “PPAR-SPARING THIAZOLIDINEDIONES AND COMBINATIONS FOR THE TREATMENT OF NEURODEGENERATIVE AND OTHER METABOLIC DISEASES” (METABOLIC SOLUTIONS DEVELOPMENT COMPANY LLC, priority 2012, published 2016)

Columns and labels:
[1] = target: T1, human PPARγ ligand binding domain (LBD) (Homo sapiens, UniProt P37231); test: TR-FRET PPARγ competitive binding assay (Invitrogen LanthaScreen)
T1 construct: purchased Invitrogen #4894
T1 sequence (P37231 238-503 limits assumed): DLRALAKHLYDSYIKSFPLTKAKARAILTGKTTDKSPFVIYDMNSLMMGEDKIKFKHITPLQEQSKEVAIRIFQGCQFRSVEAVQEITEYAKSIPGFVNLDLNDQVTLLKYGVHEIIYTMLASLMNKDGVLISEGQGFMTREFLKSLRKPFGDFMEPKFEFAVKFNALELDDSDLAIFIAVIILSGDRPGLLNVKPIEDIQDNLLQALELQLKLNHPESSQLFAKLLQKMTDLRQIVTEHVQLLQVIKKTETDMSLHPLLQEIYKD
Procedure: Whereas activation of the PPARγ receptor is generally believed to be a selection criteria to select for molecules that may have anti-diabetic and insulin sensitizing pharmacology, this invention finds that activation of this receptor should be a negative selection criterion. Molecules will be chosen from this chemical space because they have reduced, not just selective, activation of PPARγ. […] The assays are conducted by first evaluation of the direct interactions of the molecules with the ligand binding domain of PPARγ. This can be performed with a commercial interaction kit that measures the direct interaction by florescence using rosiglitazone as a positive control.
PPARγ binding is measured by a TR-FRET competitive binding assay using Invitrogen LanthaScreen™ TR-FRET PPARγ Competitive Binding Assay (Invitrogen #4894). This assay uses a terbium-labeled anti-GST antibody to label the GST tagged human PPARγ ligand binding domain (LBD). A fluorescent small molecule pan-PPAR ligand tracer binds to the LBD causing energy transfer from the antibody to the ligand resulting in a high TR-FRET ratio. Competition binding by PPARγ ligands displace the tracer from the LBD causing a lower FRET signal between the antibody and tracer. The TR-FRET ratio is determined by reading the fluorescence emission at 490 and 520 nm using a Synergy2 plate reader (BioTek). The ability of several exemplary compounds of the present invention to bind to PPARγ was also measured using a commercial binding assay (Invitrogen Corporation, Carlsbad, Calif.) that measures the test compounds ability to bind with PPAR-LBD/Fluormone PPAR Green complex. These assays were performed on three occasions with each assay using four separate wells (quadruplicate) at each concentration of tested compound. The data are mean and SEM of the values obtained from the three experiments. Rosiglitazone was used as the positive control in each experiment. Compounds were added at the concentrations shown, which ranged from 0.1-100 micromolar.

[2] = Glucose, triglycerides and insulin, T/C normalized to vehicle; format: in vivo; settings: normalized to vehicle activity
5XFAD mice = test: Plaque pathology in hippocampus of 5XFAD mice; format: in vivo; settings: chow delivering 390 mg/kg for 4 weeks
Procedure: 5XFAD mice harbor 5 familial mutations (3 in the amyloid precursor protein; 2 in presenilin 1) and develop robust plaque pathology as early as 6 weeks. These mice were treated beginning at 2 months of age for a period of 4 weeks with control chow or chow containing Compound A to deliver 390 mg/kg for 4 weeks.
Referring to FIG. 7, […] stained plaques were counted in the hippocampus of the 5XFAD mice. […] Note that the plaques having less than 100 micron size were excluded from the graph, and those amounted to about 70% of all the plaques in both Control and Compound A treated groups.

PGC-1α = test: Expression of PGC-1α mRNA in precursor BAT cells with norepinephrine; format: cell-based; settings: 3 μM compound for seven days, then 1 μM norepinephrine for 2 hours, quantitative PCR
Procedure: Another example of the ability of augmented signaling between cyclic nucleotides and compounds of Formula I is shown by the effect on expression of PGC-1α, a known regulator of mitochondrial biogenesis. Increased numbers of mitochondria are predictive of utility for the reduction of body weight.
Precursor BAT cells were isolated as described above and treated with or without 3 μM compounds: 1.] Compound A: 5-(4-(2-(5-ethylpyridin-2-yl)-2-oxoethoxy)benzyl)-1,3-thiazolidine-2,4-dione; 2.] Compound B: 5-(4-(2R)-2-(5-ethylpyridin-2-yl)-2-hydroxyethoxyy)benzyl)-1,3-thiazolidine-2,4-dione; or 3.] Compound C: 5-(4-(2-(3-methoxyphenyl)-2-oxoethoxy)benzyl)-1,3-thiazolidine-2,4-dione for seven days followed by treatment with 1 μM norepinephrine for 2 hours. Total RNA was isolated from the cells and the RNA message (mRNA) for PGC-1α was measured by quantitative polymerase chain reactions.

IC50 [1] [µM]	Compound	also measured
17.8	CCOC(Cc1ccc(OCC(=O)c2ccc(CC)cn2)cc1)C(=O)O (stereo not drawn) [Compound 1]	
111	COc1cccc(C(=O)COc2ccc(CC(=O)C(=O)O)cc2)c1 [Compound 10]	
21.8	CCO/C(=C\c1cccc(OCC(=O)c2cccc(OC)c2)c1)C(=O)O [Compound 13]	Insulin (T/C) ([2]; no dose given): 0.81 T/C; Triglycerides (mean T/C) ([2]; no dose given): 0.86 T/C
96.1	CCO/C(=C\c1ccc(OCC(=O)c2ccc(CC)cn2)cc1)C(=O)O [Compound 14]	
100	COc1cccc(C(=O)COc2cccc(O[C@H](C)C(=O)O)c2)c1 [Compound 15]	
21	CCO/C(=C\c1ccc(OC/C(=N/OC)c2ccc(CC)cn2)cc1)C(=O)O [Compound 17]	
62.2	CCOC(Cc1ccc(OC/C(=N/OC)c2ccc(CC)cn2)cc1)C(=O)O (stereo not drawn) [Compound 18]	
0.3	CCOC(Oc1ccc(OC[C@@H](O)c2ccc(CC)cn2)cc1)C(=O)O (stereo partly drawn) [Compound 35]	Insulin (T/C) ([2]; @7.5): 0.20@7.5 T/C; Triglycerides (mean T/C) ([2]; @7.5): 0.32@7.5 T/C; Insulin (T/C) ([2]; @15): 0.44@15 T/C; Triglycerides (mean T/C) ([2]; @15): 0.24@15 T/C; Insulin (T/C) ([2]; @30): 0.11@30 T/C; Triglycerides (mean T/C) ([2]; @30): 0.17@30 T/C
17.6	CCOC(Oc1ccc(OC[C@H](O)c2ccc(CC)cn2)cc1)C(=O)O (stereo partly drawn) [Compound 36]	Triglycerides (mean T/C) ([2]; @0.5): 0.50@0.5 T/C; Insulin (T/C) ([2]; @7.5): 0.26@7.5 T/C; Triglycerides (mean T/C) ([2]; @7.5): 0.41@7.5 T/C; Insulin (T/C) ([2]; @15): 0.33@15 T/C; Insulin (T/C) ([2]; @30): 0.46@30 T/C; Triglycerides (mean T/C) ([2]; @30): 0.38@30 T/C
6.07	CCOC(Cc1ccc(OCC(=O)c2cccc(OC)c2)cc1)C(=O)O (stereo not drawn) [Compound 47]	Insulin (T/C) ([2]; no dose given): 0.26 T/C; Triglycerides (mean T/C) ([2]; no dose given): 0.33 T/C
14.7	CCOC(Cc1ccc(OCC(=NO)c2cccc(OC)c2)cc1)C(=O)O (stereo not drawn) [Compound 48]	
157	CCOC(Cc1ccc(OC[C@@H](F)c2cccc(OC)c2)cc1)C(=O)O (stereo partly drawn) [Compound 50]	
> 263	COc1cccc(C(=O)COc2ccc(C[C@@H](O)C(=O)O)cc2)c1 [Compound 53]	
18.9	CCO[C@@H](Cc1ccc(OC[C@@H](NC(=O)OC(C)(C)C)c2ccccc2)cc1)C(=O)O [Compound 55]	
33.7	CCO[C@@H](Cc1ccc(OC[C@@H](NC(C)=O)c2ccccc2)cc1)C(=O)O [Compound 56]	
39.7	CCO[C@@H](Cc1ccc(OC[C@@H](N)c2ccccc2)cc1)C(=O)O [Compound 57]	
12.3	CCO[C@@H](Cc1ccc(OC[C@@H](NC=O)c2ccccc2)cc1)C(=O)O [Compound 58]	
> 250	CCO[C@@H](Cc1ccc(OC[C@H](NC=O)c2ccccc2)cc1)C(=O)O [Compound 59]	
80.3	CCO[C@@H](Cc1ccc(OC[C@H](NS(C)(=O)=O)c2ccccc2)cc1)C(=O)O [Compound 60]	
14.1	CCOC(=O)[C@H](Cc1ccc(OC[C@@H](NC(=O)OC(C)(C)C)c2ccccc2)cc1)OCC [Compound 61]	
84.8	CCOC(=O)[C@H](Cc1ccc(OC[C@@H](N)c2ccccc2)cc1)OCC [Compound 62]	
	CCc1ccc(C(=O)COc2ccc(CC3SC(=O)NC3=O)cc2)nc1 (stereo not drawn) [Compound A, 5-(4-(2-(5-ethylpyridin-2-yl)-2-oxoethoxy)benzyl)-1,3-thiazolidine-2,4-dione]	plaques having less than 100 micron size, share of all the plaques (5XFAD mice; same in the control group): about 70%; size and number of thioflavin stained plaques in the hippocampus (5XFAD mice; versus control chow): less than the control group; PGC-1α mRNA (message) (PGC-1α): an increase in PGC-1α message was observed
	CCc1ccc([C@@H](O)COc2ccc(CC3SC(=O)NC3=O)cc2)nc1 (stereo partly drawn) [Compound B]	PGC-1α mRNA (message) (PGC-1α): an increase in PGC-1α message was observed
	COc1cccc(C(=O)COc2ccc(CC3SC(=O)NC3=O)cc2)c1 (stereo not drawn) [Compound C, 5-(4-(2-(3-methoxyphenyl)-2-oxoethoxy)benzyl)-1,3-thiazolidine-2,4-dione]	PGC-1α mRNA (message) (PGC-1α): an increase in PGC-1α message was observed
